# Data published in ChEMBL document CHEMBL2040840, “New quinoline-5,8-dione and hydroxynaphthoquinone derivatives inhibit a chloroquine resistant Plasmodium falciparum strain” (Eur J Med Chem, 2012).
# Active and inactive are the calls of the source. The calls are words filed in the database; no cut-off is given here.
# System: Plasmodium falciparum
# Test: Antiplasmodial activity against Plasmodium falciparum NF54 infected in human erythrocytes assessed as decrease in parasitemia measured on day 2 post-treatment by geimsa staining (reference value: 1.1 +/- 0.09%)
# Type: functional
# Set-up: scale not given: the % may be the effect or the level left
# Details: not given
row,SMILES,Activity [%]
1,Cc1ccc2c(n1)C(=O)C(Br)=C(N1CCN(c3ccccc3)CC1)C2=O,0.29
2,O=C1C(O)=C(N2CCN(c3ccccc3)CC2)C(=O)c2ccccc21,0.26
3,Cc1ccc2c(n1)C(=O)C(Br)=C(NN1CCN(NC3=C(Br)C(=O)c4nc(C)ccc4C3=O)CC1)C2=O,0.49
4,CCN(CC)CCCC(C)Nc1ccnc2cc(Cl)ccc12 (configuration not stated) [CHLOROQUINE],0
5,Cc1ccc2c(n1)C(=O)C=C(N1CCN(c3ccccc3)CC1)C2=O,0.25
6,Cc1ccc2c(n1)C(=O)C(Br)=C(NN1CCN(N)CC1)C2=O,0.28
7,CCCc1ccc(-c2ccc(NC3=C(Br)C(=O)c4nc(C)ccc4C3=O)cc2)cc1,0.19

# System: Plasmodium falciparum
# Test: Antiplasmodial activity against Plasmodium falciparum NF54 infected in human erythrocytes assessed as decrease in parasitemia measured on day 1 post-treatment by geimsa staining (reference value: 0.65 +/- 02%)
# Type: functional
# Set-up: scale not given: the % may be the effect or the level left
# Details: not given
row,SMILES,Activity [%]
1,Cc1ccc2c(n1)C(=O)C(Br)=C(N1CCN(c3ccccc3)CC1)C2=O,0.46
2,O=C1C(O)=C(N2CCN(c3ccccc3)CC2)C(=O)c2ccccc21,0.5
3,Cc1ccc2c(n1)C(=O)C(Br)=C(NN1CCN(NC3=C(Br)C(=O)c4nc(C)ccc4C3=O)CC1)C2=O,0.65
4,CCN(CC)CCCC(C)Nc1ccnc2cc(Cl)ccc12 (configuration not stated) [CHLOROQUINE],0.06
5,Cc1ccc2c(n1)C(=O)C=C(N1CCN(c3ccccc3)CC1)C2=O,0.43
6,Cc1ccc2c(n1)C(=O)C(Br)=C(NN1CCN(N)CC1)C2=O,0.48
7,CCCc1ccc(-c2ccc(NC3=C(Br)C(=O)c4nc(C)ccc4C3=O)cc2)cc1,0.42

# System: Plasmodium falciparum
# Test: Antiplasmodial activity against Plasmodium falciparum NF54 infected in human erythrocytes after 72 hrs by geimsa staining
# Type: functional, organism-based
# Details: not given
row,SMILES,Activity
1,Oc1c(Br)cc(Br)c2cccnc12,inactive

# Same assay, conditions: NF54, 72 h
row,IC50 [µM],SMILES
1,2.21,Cc1ccc2c(n1)C(=O)C(Br)=C(N1CCN(c3ccccc3)CC1)C2=O
2,3.89,O=C1C(O)=C(N2CCN(c3ccccc3)CC2)C(=O)c2ccccc21
3,3.93,Cc1ccc2c(n1)C(=O)C(Br)=C(NN1CCN(NC3=C(Br)C(=O)c4nc(C)ccc4C3=O)CC1)C2=O
4,3,CCCc1ccc(-c2ccc(NC3=C(Br)C(=O)c4ncccc4C3=O)cc2)cc1
5,3.96,Cc1ccc2c(n1)C(=O)C=C(N1CCN(c3ccccc3)CC1)C2=O
6,4.1,Cc1ccc2c(n1)C(=O)C(Br)=C(NN1CCN(N)CC1)C2=O
7,4.37,CCCc1ccc(-c2ccc(NC3=C(Br)C(=O)c4nc(C)ccc4C3=O)cc2)cc1
8,7.54,Cc1ccc2c(Br)cc(Br)c(O)c2n1 [BROQUINALDOL]

# System: Plasmodium falciparum
# Test: Antiplasmodial activity against Plasmodium falciparum NF54 infected in human erythrocytes assessed as decrease in parasitemia measured on day 4 post-treatment by geimsa staining (reference value: 3.28 +/- 0.11%)
# Type: functional
# Set-up: scale not given: the % may be the effect or the level left
# Details: not given
row,SMILES,Activity [%]
1,Cc1ccc2c(n1)C(=O)C(Br)=C(N1CCN(c3ccccc3)CC1)C2=O,0
2,O=C1C(O)=C(N2CCN(c3ccccc3)CC2)C(=O)c2ccccc21,0
3,Cc1ccc2c(n1)C(=O)C(Br)=C(NN1CCN(NC3=C(Br)C(=O)c4nc(C)ccc4C3=O)CC1)C2=O,0
4,CCN(CC)CCCC(C)Nc1ccnc2cc(Cl)ccc12 (configuration not stated) [CHLOROQUINE],0
5,Cc1ccc2c(n1)C(=O)C=C(N1CCN(c3ccccc3)CC1)C2=O,0
6,Cc1ccc2c(n1)C(=O)C(Br)=C(NN1CCN(N)CC1)C2=O,0
7,CCCc1ccc(-c2ccc(NC3=C(Br)C(=O)c4nc(C)ccc4C3=O)cc2)cc1,0

# System: Plasmodium falciparum
# Test: Antiplasmodial activity against Plasmodium falciparum NF54 infected in human erythrocytes assessed as decrease in parasitemia measured on day 3 post-treatment by geimsa staining (reference value: 2.18 +/- 0.17%)
# Type: functional
# Set-up: scale not given: the % may be the effect or the level left
# Details: not given
row,SMILES,Activity [%]
1,Cc1ccc2c(n1)C(=O)C(Br)=C(N1CCN(c3ccccc3)CC1)C2=O,0
2,O=C1C(O)=C(N2CCN(c3ccccc3)CC2)C(=O)c2ccccc21,0.03
3,Cc1ccc2c(n1)C(=O)C(Br)=C(NN1CCN(NC3=C(Br)C(=O)c4nc(C)ccc4C3=O)CC1)C2=O,0.05
4,CCN(CC)CCCC(C)Nc1ccnc2cc(Cl)ccc12 (configuration not stated) [CHLOROQUINE],0
5,Cc1ccc2c(n1)C(=O)C=C(N1CCN(c3ccccc3)CC1)C2=O,0.04
6,Cc1ccc2c(n1)C(=O)C(Br)=C(NN1CCN(N)CC1)C2=O,0.07
7,CCCc1ccc(-c2ccc(NC3=C(Br)C(=O)c4nc(C)ccc4C3=O)cc2)cc1,0.05
